Experimental data as given in patent US6998397B2, “Method for decreasing cholesterol level in blood” (Drebsk Comptech, Inc., priority 2004, dated 2006).

Assays:
[1] = test system: rats fed with high-cholesterol diet; experiment: Lipid metabolism and redox-vitamins in blood serum of rats under high-cholesterol diet, four-week administration; assay type: in vivo, rat; settings: 4 weeks; for HDL / LDL / VLDL: blood serum lipoprotein fraction; for HDL / LDL / VLDL / Total cholesterol / Triglycerids / Vitamin A / Vitamin E: high-cholesterol diet; for Total cholesterol / Triglycerids / Vitamin A / Vitamin E: blood serum
Protocol: Forty white rats (mails) were divided for four groups (ten in each) by randomization using body mass as the principal feature. One group (control) was fed with a normal diet, and three others were fed with a high-cholesterol diet. The latter once received three times per week special food with the following additives: cholesterol (500 mg/kg), vitamin D3 (10000 ME/kg) and pork fat (1000 mg/kg). As a drink, these animals daily received a mixture (1:1) of glucose (5% water solution) and sodium chloride (2.5% water solution). Two groups of animals fed with the high-cholesterol diet received daily a water solution of EBI intragastrularly, and the control group received an equivalent amount of placebo. At the end of each experiment, animals were decapitated under light ether narcosis 18 hours after food withdrawal. Total cholesterol and triglycerides in blood serum were measured enzymatically. Lipoproteins were divided by electrophoresis in agar gel, then dyed with lipid-specific stuff and measured by a direct densitometry. Vitamins A and E were measured by fluorimetric analysis.

[2] = prolonged and chronic experiments; cited from earlier work
[3] = test system: rats; settings: acute toxicity; cited from earlier work
[4] = test system: Volunteers with a high level of cholesterol; experiment: Total cholesterol in volunteers with high cholesterol after four-week administration; assay type: in vivo, human
Protocol: Volunteers with a high level of cholesterol were selected for clinical study. During the experiment, each patient had their normal personal diet without any special limitations (fats, high-cholesterol food, etc.). All the patients received daily EBI (2.5 mcg) dissolved in ethanol (0.03 ml) and mixed with water (50 ml). Administering the EBI was not adjusted with the meal-receiving time.

[5] = Solubility in water; assay type: physicochemical
Excerpt: Compositions useful for administration of EBI can be easily prepared. The simplest way is the use of water-based solutions. […] Preferable concentrations are laying in the range of 10^−5–10^−6% that corresponds to 0.1–0.01 mcg/ml. […] Other drinkable or eatable forms and non-aqueous carriers may also be used.

[6] = test system: White rats fed with a standard food and drink diet; experiment: Total blood serum cholesterol in rats on normal diet, 36-week intragastrular administration; assay type: in vivo, rat; settings: 36 weeks
Protocol: White rats (mails) were fed with a standard food and drink diet. Experimental and control groups (7 animals in each) were formed by randomization using body mass as the principal feature. EBI was administered to the experimental animals intragastrularly as a water solution during 36 weeks. The control group received an equivalent amount of placebo. At the end of each experiment, animals were decapitated under light ether narcosis 18 hours after food withdrawal. Total cholesterol in blood serum was measured enzymatically.

[7] = test system: mice; settings: acute toxicity; cited from earlier work
[8] = 2 mcg/kg daily, listed as 24-epibrassinolide
[9] = 20 mcg/kg daily, listed as 24-epibrassinolide

CC(C)[C@@H](C)[C@@H](O)[C@H](O)[C@@H](C)[C@H]1CC[C@H]2[C@@H]3COC(=O)[C@H]4C[C@H](O)[C@H](O)C[C@]4(C)[C@H]3CC[C@]12C [EBI, 24-epibrassinolide]
HDL, percentage related to the high-cholesterol diet ([1]; 2 mcg/kg daily): −1%
LDL, percentage related to the high-cholesterol diet ([1]; 2 mcg/kg daily): 0%
Total cholesterol, percentage related to the high-cholesterol diet ([1]; 2 mcg/kg daily): (−34%)
Triglycerids, percentage related to the high-cholesterol diet ([1]; 2 mcg/kg daily): −58%
VLDL, percentage related to the high-cholesterol diet ([1]; 2 mcg/kg daily): +9%
Vitamin A, percentage related to the high-cholesterol diet ([1]; 2 mcg/kg daily): 16%
Vitamin E, percentage related to the high-cholesterol diet ([1]; 2 mcg/kg daily): 53%
reduction of plasma concentration of total cholesterol vs high-cholesterol diet without EBI ([1]; 2 mcg/kg daily): 34%
reduction of plasma concentration of triglycerides vs high-cholesterol diet without EBI ([1]; 2 mcg/kg daily): 58%
Vitamin A, percentage related to the high-cholesterol diet [1, 8]: +16%
Vitamin E, percentage related to the high-cholesterol diet [1, 8]: (+53%)
HDL, percentage related to the high-cholesterol diet ([1]; 20 mcg/kg daily): 47%
LDL, percentage related to the high-cholesterol diet ([1]; 20 mcg/kg daily): (−11%)
Total cholesterol, percentage related to the high-cholesterol diet ([1]; 20 mcg/kg daily): (−44%)
Triglycerids, percentage related to the high-cholesterol diet ([1]; 20 mcg/kg daily): −68%
VLDL, percentage related to the high-cholesterol diet ([1]; 20 mcg/kg daily): −11%
Vitamin A, percentage related to the high-cholesterol diet ([1]; 20 mcg/kg daily): 30%
Vitamin E, percentage related to the high-cholesterol diet ([1]; 20 mcg/kg daily): 51%
reduction of low-density lipoprotein vs high-cholesterol diet only ([1]; 20 mcg/kg daily): 11%
reduction of plasma concentration of total cholesterol vs high-cholesterol diet only ([1]; 20 mcg/kg daily): 44%
reduction of plasma concentration of triglycerides vs high-cholesterol diet only ([1]; 20 mcg/kg daily): 68%
HDL, percentage related to the high-cholesterol diet [1, 9]: (+47%)
Vitamin A, percentage related to the high-cholesterol diet [1, 9]: (+30%)
Vitamin E, percentage related to the high-cholesterol diet [1, 9]: (+51%)
decrease of VLDL level ([1]; 20 mcg/kg): 11%
HDL ([1]; 2 mcg/kg daily): 19.45 ± 1.14%
LDL ([1]; 2 mcg/kg daily): 75.24 ± 1.23%
VLDL ([1]; 2 mcg/kg daily): 5.31 ± 0.24%
HDL ([1]; 20 mcg/kg daily): 28.72 ± 1.22 %
LDL ([1]; 20 mcg/kg daily): 66.97 ± 1.23 %
VLDL ([1]; 20 mcg/kg daily): 4.33 ± 0.45%
Total cholesterol ([1]; 2 mcg/kg daily): 64.94 ± 5.15 mg/deciliter
Triglycerids ([1]; 2 mcg/kg daily): 0.80 ± 0.09 mmol/L
Vitamin A ([1]; 2 mcg/kg daily): 0.26 ± 0.02 mmol/L
Vitamin E ([1]; 2 mcg/kg daily): 1.90 ± 0.14 mmol/L
Total cholesterol ([1]; 20 mcg/kg daily): 55.04 ± 4.36 mg/deciliter
Triglycerids ([1]; 20 mcg/kg daily): 0.60 ± 0.04 mmol/L
Vitamin A ([1]; 20 mcg/kg daily): 0.29 ± 0.01 mmol/L
Vitamin E ([1]; 20 mcg/kg daily): 1.88 ± 0.10 mmol/L
decrease of total cholesterol ([1]; doses of 2 and 20 mcg/kg): 34–44%
decrease of triglycerides ([1]; doses of 2 and 20 mcg/kg): 58–68%
postponed negative effects [2]: no postponed negative effects
LD50 [3]: more than 2000 mg/kg
plasma total cholesterol lower than the starting level, on average ([4]; 6 volunteers with hypercholesterolemia, 2.5 mcg daily, 4 weeks): 38%
Total Cholesterol in Plasma (after 4 weeks) ([4]; humans, 2.5 mcg daily oral, start 287.1 ± 38.8): 177.8 ± 12.3 mg/deciliter
Percentage Change in Cholesterol ([4]; humans, 2.5 mcg daily, 4 weeks, vs start): −38%
solubility in water [5]: relatively small
total blood serum cholesterol ([6]; 0.2 mcg/kg intragastrular): 62.17 ± 5.54 mg/deciliter
total blood serum cholesterol, percentage change vs control ([6]; 0.2 mcg/kg intragastrular): −9%
total blood serum cholesterol ([6]; 2 mcg/kg intragastrular): 57.81 ± 6.34 mg/deciliter
total blood serum cholesterol, percentage change vs control ([6]; 2 mcg/kg intragastrular): −15%
total blood serum cholesterol ([6]; 20 mcg/kg intragastrular): 54.25 ± 3.17 mg/deciliter
total blood serum cholesterol, percentage change vs control ([6]; 20 mcg/kg intragastrular): (−20%)
total blood serum cholesterol ([6]; 200 mcg/kg intragastrular): 51.08 ± 5.15 mg/deciliter
total blood serum cholesterol, percentage change vs control ([6]; 200 mcg/kg intragastrular): (−25%)
lower cholesterol (lowering depending on dose) ([6]; normal cholesterol): 9–25%
LD50 [7]: more than 1000 mg/kg
